Results published in paper PMC5693604 (Cell chemical biology, 2017).

Assays:
Format in all cases: cell-based
CHEK2 [1] = molecular target: T1, CHEK2 (Homo sapiens, UniProt O96017); test: competitive gel-based ABPP with probe […] in HEK293T cells
CHEK2 [2] = molecular target: T1, CHEK2; test: FRET Z'-LYTE kinase assay
[3] = molecular target: T2, NT5DC1 (5'-Nucleotidase-Domain Containing 1) (Homo sapiens, UniProt Q5TFE4); test: competitive gel-based ABPP with probe […] in HEK293T cells
T2 sequence (Q5TFE4 1-455): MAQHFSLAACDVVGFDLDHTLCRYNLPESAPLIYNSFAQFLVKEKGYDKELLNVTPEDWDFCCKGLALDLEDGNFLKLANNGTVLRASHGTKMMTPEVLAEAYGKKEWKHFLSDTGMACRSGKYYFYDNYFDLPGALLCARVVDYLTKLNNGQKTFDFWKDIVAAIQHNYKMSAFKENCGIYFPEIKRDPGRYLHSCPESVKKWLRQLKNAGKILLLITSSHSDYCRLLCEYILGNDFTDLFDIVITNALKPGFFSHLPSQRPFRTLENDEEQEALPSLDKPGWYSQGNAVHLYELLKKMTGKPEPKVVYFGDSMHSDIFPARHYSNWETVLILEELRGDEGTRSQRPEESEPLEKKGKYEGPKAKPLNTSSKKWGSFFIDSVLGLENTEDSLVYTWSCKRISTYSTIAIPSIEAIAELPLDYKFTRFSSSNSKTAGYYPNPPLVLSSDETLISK

T1 sequence (O96017 whole entry): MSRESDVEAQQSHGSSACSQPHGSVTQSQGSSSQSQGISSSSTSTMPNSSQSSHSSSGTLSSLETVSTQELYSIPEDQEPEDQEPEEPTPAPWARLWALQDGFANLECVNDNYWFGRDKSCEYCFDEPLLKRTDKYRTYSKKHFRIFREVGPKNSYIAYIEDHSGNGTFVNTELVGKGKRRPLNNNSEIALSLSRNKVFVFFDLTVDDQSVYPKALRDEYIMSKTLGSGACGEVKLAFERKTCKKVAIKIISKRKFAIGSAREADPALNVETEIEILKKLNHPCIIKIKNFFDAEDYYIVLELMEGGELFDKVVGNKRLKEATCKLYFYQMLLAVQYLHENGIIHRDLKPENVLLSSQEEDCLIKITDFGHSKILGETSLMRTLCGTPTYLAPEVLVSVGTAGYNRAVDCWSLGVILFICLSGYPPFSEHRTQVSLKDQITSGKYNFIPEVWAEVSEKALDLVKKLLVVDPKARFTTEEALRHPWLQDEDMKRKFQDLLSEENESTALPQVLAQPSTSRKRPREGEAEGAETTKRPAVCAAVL

IC50 (CHEK2 [1]) [nM]	Structure (SMILES)	IC50 (CHEK2 [2]) [nM]	IC50 [3] [nM]
~4000	C=CC(=O)N[C@@H]1CN(c2nc(Nc3cn(C)nc3OC)c3ncn(C)c3n2)C[C@H]1F [compound 2, N-((3R,4R)-4-Fluoro-1-(6-((3-methoxy-1-methyl-1H-pyrazol-4-yl)amino)-9-methyl-9H-purin-2-yl)pyrrolidine-3-yl)acrylamide]	–	–
–	C=CC(=O)Nc1cccc(Nc2nc(Nc3ccc(N4CCN(C(C)=O)CC4)cc3OC)ncc2C(F)(F)F)c1 [compound 3, rociletinib]	350	~360
